Where a name gives a salt, the structure may show the parent alone.
Legend:
NF-kB p65 = NF-kB p65 nuclear translocation by immunofluorescence in LPS-activated microglia; format: cell-based, murine; settings: LPS + drug 30 min
Description: Lipopolysaccharide (LPS) from Escherichia coli 026:B6 in an aqueous solution (Thermo Fisher Scientific) was used as proinflammatory stimuli in microglia at a final concentration of 600 ng/mL. For the LPS experiments, the concentration of fetal bovine serum in the microglia culture medium was reduced to 0.1% immediately before drug treatment. All of the compounds were titrated in their respective vehicle and diluted into the culture media for cell treatments. The final concentration of vehicle (DMSO, EtOH or H2O) was consistent for all treated cells (0.2%).
For the immunofluorescence experiments, neurons and microglia were directly seeded on glass coverslips previously treated with 1 mg/mL of poly-L-lysine. […] After the drug treatments, the cells were fixed on ice with 4% paraformaldehyde for 25 min and then permeabilized and blocked using 0.1% Triton X-100 (10 min) and 5% BSA (30 min), respectively. Cells were then incubated overnight with the primary antibodies and 1% BSA at 4 °C. The primary antibodies anti-Nrf2 (ab1375550) and anti-NF-kB p65 (ab16502) (both from Abcam, Cambridge, United Kingdom) were used at 1:200. After washing with PBS, cells were incubated with the fluorophore-conjugated secondary antibody anti-Rabbit IgG Alexa Fluor 488 (Thermo Fisher Scientific) at 1:500 for 1 h at room temperature. Cells were counterstained with the TO-PRO fluorescent dye (Thermo Fisher Scientific) to visualize the cell nuclei. Images were captured using the confocal microscope Leica TCS SP5 (Leica Microsystems, Wetzlar, Germany). For each experimental condition, five random fields were captured and analyzed using ImageJ software (National Institutes of Health, Maryland, DC, USA). Activation of Nrf2 or NF-kB was defined as nuclear translocation, measured by the increase in the mean fluorescence intensity (MFI) in the nucleus. Each experiment was repeated three times.

[1] = after oral intake of the therapeutic dose established for DMF; cited from earlier work

In the case of `C=C(C)[C@@H]1CCC(C)=C[C@H]1c1c(O)cc(CCCCC)cc1O` [CBD, cannabidiol], the “effect on LPS-induced NF-kB p65 nuclear translocation, in words” value (from here on “effect”) (NF-kB p65; 4 µM) is reported as “inhibition of NF-kB p65”, the “effect” value (NF-kB p65; 6 µM) is reported as “inhibition of NF-kB p65” and the “effect” value (NF-kB p65; CBD concentrations higher than 6 µM) is reported as “this inhibition was not achieved”.
For `COC(=O)/C=C/C(=O)O` [MMF, monomethyl fumarate], the “effect” value (NF-kB p65; any of the studied concentrations) is given as “did not prevent the activation of NF-KB” and the “concentration of MMF detected in the brain” value [1] is given as “approximately 100 µM”.

From article PMC11642486 (International Journal of Molecular Sciences, 2024)
